# Source: patent US10532995B2, “Substituted pyrazole compounds as serine protease inhibitors” (VERSEON CORPORATION, priority 2015, dated 2020)
# Counter-ions that a name gives are not always drawn.
# Molecular target: T1, Human thrombin (Homo sapiens, UniProt P00734)
# T1 construct: purchased Haematologic Technologies Inc
# Test: Thrombin protease activity inhibition, chromogenic substrate S-2238
# Type: biochemical
# Settings: 3 nM thrombin, 125 μM S-2238, 10 min pre-incubation, RT
# Method: The thrombin activity reported herein (e.g., Table A) was obtained as follows. […] Thrombin was assayed in buffer containing 0.05 M Tris (pH 7.4), 0.015 M NaCl and 0.01% PEG-8000. The final concentration of enzyme used was 3 nM thrombin. […] All assays were performed in 96-well microtiter plates at room temperature (RT). […] Inhibitor IC50 values were determined by adding test compound as ten point, three-fold serial dilutions in buffer solution, as known in the art. The plate was read at 10 minutes after substrate addition. The IC50 was calculated by plotting the percent (%) inhibition against compound concentration and fitting the data to a constrained four parameter sigmoidal curve, as known in the art.
row,IC50,SMILES
1,100 to 1000 nM,"COc1ccccc1C(=O)n1nc(C2CCCN2C(=O)C(C)(C)C)cc1NCc1ccc(Cl)s1 (stereo not shown) [Entry 90, 1-[2-(5-[(5-chlorothiophen-2-yl)methyl]amino-1-(2-methoxybenzoyl)-1H-pyrazol-3-yl)pyrrolidin-1-yl]-2,2-dimethylpropan-1-one]"
2,100 to 1000 nM,"COc1ccccc1C(=O)n1nc(C2CCCN2C(=O)C(C)C)cc1NCc1ccc(Cl)s1 (stereo not shown) [Entry 91, 1-[2-(5-[(5-chlorothiophen-2-yl)methyl]amino-1-(2-methoxybenzoyl)-1H-pyrazol-3-yl)pyrrolidin-1-yl]-2-methylpropan-1-one]"
3,< 100 nM,"CC(C)(C)C(=O)n1nc(C2CCN(Cc3ccccc3)CC2)cc1NCc1ccc(Cl)s1 [Entry 95, 1-[3-(1-benzylpiperidin-4-yl)-5-[(5-chlorothiophen-2-yl)methyl]amino-1H-pyrazol-1-yl]-2,2-dimethylpropan-1-one]"
4,< 100 nM,"CC(C)(C)C(=O)N1CCC(c2cc(NCc3ccc(Cl)s3)n(C(=O)c3ccsc3)n2)CC1 [Entry 101, 1-[4-(5-[(5-chlorothiophen-2-yl)methyl]amino-1-(thiophene-3-carbonyl)-1H-pyrazol-3-yl)piperidin-1-yl]-2,2-dimethylpropan-1-one]"
5,100 to 1000 nM,"CC(=O)N1CCC(c2cc(NCc3ccc(Cl)s3)n(C(=O)c3ccsc3)n2)CC1 [Entry 102, 1-[4-(5-[(5-chlorothiophen-2-yl)methyl]amino-1-(thiophene-3-carbonyl)-1H-pyrazol-3-yl)piperidin-1-yl]ethan-1-one]"
6,100 to 1000 nM,"O=C(c1ccccc1)n1nc(C2CCNCC2)cc1NCc1ccc(Cl)s1 [Entry 105, 1-benzoyl-N-[(5-chlorothiophen-2-yl)methyl]-3-(piperidin-4-yl)-1H-pyrazol-5-amine hydrochloride]"
7,1000 to 10000 nM,"O=C(c1ccoc1)n1nc(C2CCN(Cc3ccccc3)C2)cc1NCc1ccc(Cl)s1 (stereo not shown) [Entry 114, 3-(1-benzylpyrrolidin-3-yl)-N-[(5-chlorothiophen-2-yl)methyl]-1-(furan-3-carbonyl)-1H-pyrazol-5-amine]"
8,100 to 1000 nM,"CC(C)(C)C(=O)n1nc(C2(C)CCCNC2=O)cc1NCc1ccc(Cl)s1 (stereo not shown) [Entry 115, 3-(5-[(5-chlorothiophen-2-yl)methyl]amino-1-(2,2-dimethylpropanoyl)-1H-pyrazol-3-yl)-3-methylpiperidin-2-one]"
9,< 100 nM,"CC(C)(C)C(=O)n1nc(C2(C)CCNC2=O)cc1NCc1ccc(Cl)s1 (stereo not shown) [Entry 116, 3-(5-[(5-chlorothiophen-2-yl)methyl]amino-1-(2,2-dimethylpropanoyl)-1H-pyrazol-3-yl)-3-methylpyrrolidin-2-one]"
10,100 to 1000 nM,"COc1ccccc1C(=O)n1nc(C2(C)CCCNC2=O)cc1NCc1ccc(Cl)s1 (stereo not shown) [Entry 117, 3-(5-[(5-chlorothiophen-2-yl)methyl]amino-1-(2-methoxybenzoyl)-1H-pyrazol-3-yl)-3-methylpiperidin-2-one]"
11,100 to 1000 nM,"COc1ccccc1C(=O)n1nc(C2(C)CCNC2=O)cc1NCc1ccc(Cl)s1 (stereo not shown) [Entry 118, 3-(5-[(5-chlorothiophen-2-yl)methyl]amino-1-(2-methoxybenzoyl)-1H-pyrazol-3-yl)-3-methylpyrrolidin-2-one]"
12,100 to 1000 nM,"CC(C)(CO)C(=O)n1nc(C2(C)CCCNC2=O)cc1NCc1ccc(Cl)s1 (stereo not shown) [Entry 119, 3-(5-[(5-chlorothiophen-2-yl)methyl]amino-1-(3-hydroxy-2,2-dimethylpropanoyl)-1H-pyrazol-3-yl)-3-methylpiperidin-2-one]"
13,1000 to 10000 nM,"COCC(C)(C)C(=O)n1nc(C2(C)CCCNC2=O)cc1NCc1ccc(Cl)s1 (stereo not shown) [Entry 120, 3-(5-[(5-chlorothiophen-2-yl)methyl]amino-1-(3-methoxy-2,2-dimethylpropanoyl)-1H-pyrazol-3-yl)-3-methylpiperidin-2-one]"
14,1000 to 10000 nM,"CC1(C(=O)n2nc(C3(C)CCCNC3=O)cc2NCc2ccc(Cl)s2)CCOCC1 (stereo not shown) [Entry 121, 3-(5-[(5-chlorothiophen-2-yl)methyl]amino-1-(4-methyloxane-4-carbonyl)-1H-pyrazol-3-yl)-3-methylpiperidin-2-one]"
15,100 to 1000 nM,"CC1(C(=O)n2nc(C3(C)CCNC3=O)cc2NCc2ccc(Cl)s2)CCOCC1 (stereo not shown) [Entry 122, 3-(5-[(5-chlorothiophen-2-yl)methyl]amino-1-(4-methyloxane-4-carbonyl)-1H-pyrazol-3-yl)-3-methylpyrrolidin-2-one]"
16,100 to 1000 nM,"CC1(c2cc(NCc3ccc(Cl)s3)n(C(=O)c3ccsc3)n2)CCCNC1=O (stereo not shown) [Entry 123, 3-(5-[(5-chlorothiophen-2-yl)methyl]amino-1-(thiophene-3-carbonyl)-1H-pyrazol-3-yl)-3-methylpiperidin-2-one]"
17,100 to 1000 nM,"CC1(c2cc(NCc3ccc(Cl)s3)n(C(=O)c3ccsc3)n2)CCNC1=O (stereo not shown) [Entry 124, 3-(5-[(5-chlorothiophen-2-yl)methyl]amino-1-(thiophene-3-carbonyl)-1H-pyrazol-3-yl)-3-methylpyrrolidin-2-one]"
18,1000 to 10000 nM,"O=C(c1cccc2c1OCCO2)n1nc(C2CNC2)cc1NCc1ccc(Cl)s1 [Entry 126, 3-(azetidin-3-yl)-N-[(5-chlorothiophen-2-yl)methyl]-1-(2,3-dihydro-1,4-benzodioxine-5-carbonyl)-1H-pyrazol-5-amine; trifluoroacetic acid]"
19,10000 to 100000 nM,"COc1ccccc1C(=O)n1nc(C2CNC2)cc1NCc1ccc(Cl)s1 [Entry 127, 3-(azetidin-3-yl)-N-[(5-chlorothiophen-2-yl)methyl]-1-(2-methoxybenzoyl)-1H-pyrazol-5-amine hydrochloride]"

# Second part, the compound before the results:
row,SMILES,IC50
1,"CC(C)(C)C(=O)n1nc(C2CC3CCC(C2)N3S(C)(=O)=O)cc1NCc1ccc(Cl)s1 (stereo not shown) [Entry 81, 1-(5-[(5-chlorothiophen-2-yl)methyl]amino-3-8-methanesulfonyl-8-azabicyclo[3.2.1]octan-3-yl-1H-pyrazol-1-yl)-2,2-dimethylpropan-1-one]",< 100 nM
2,"COC(C)(C)C(=O)n1nc(C2CCNCC2)c(F)c1NCc1ccc(Cl)s1 [Entry 86, 1-(5-[(5-chlorothiophen-2-yl)methyl]amino-4-fluoro-3-(piperidin-4-yl)-1H-pyrazol-1-yl)-2-methoxy-2-methylpropan-1-one]",100 to 1000 nM
3,"Cc1c(C2CCNCC2)nn(C(=O)C(C)(C)C)c1NCc1ccc(Cl)s1 [Entry 89, 1-(5-[(5-chlorothiophen-2-yl)methyl]amino-4-methyl-3-(piperidin-4-yl)-1H-pyrazol-1-yl)-2,2-dimethylpropan-1-one; formic acid]",1000 to 10000 nM
4,"O=C(CN1CCOCC1)N1CCCC1c1cc(NCc2ccc(Cl)s2)[nH]n1 (stereo not shown) [Entry 93, 1-[2-(5-[(5-chlorothiophen-2-yl)methyl]amino-1H-pyrazol-3-yl)pyrrolidin-1-yl]-2-(morpholin-4-yl)ethan-1-one]",> 100000 nM
5,"CC(=O)N1CCC(c2cc(NCc3ccc(Cl)s3)n(C(=O)C(C)(C)C)n2)CC1 [Entry 94, 1-[3-(1-acetylpiperidin-4-yl)-5-[(5-chlorothiophen-2-yl)methyl]amino-1H-pyrazol-1-yl]-2,2-dimethylpropan-1-one]",< 100 nM
6,"CC(C)(C)C(=O)N1CC(c2cc(NCc3ccc(Cl)s3)n(C(=O)C(C)(C)C)n2)C1 [Entry 96, 1-[3-(5-[(5-chlorothiophen-2-yl)methyl]amino-1-(2,2-dimethylpropanoyl)-1H-pyrazol-3-yl)azetidin-1-yl]-2,2-dimethylpropan-1-one]",100 to 1000 nM
7,"CC(C)(C)C(=O)N1CC(c2cc(NCc3ccc(Cl)s3)[nH]n2)C1 [Entry 97, 1-[3-(5-[(5-chlorothiophen-2-yl)methyl]amino-1H-pyrazol-3-yl)azetidin-1-yl]-2,2-dimethylpropan-1-one]",> 100000 nM
8,"O=C(CN1CCOCC1)N1CCC(c2cc(NCc3ccc(Cl)s3)[nH]n2)CC1 [Entry 103, 1-[4-(5-[(5-chlorothiophen-2-yl)methyl]amino-1H-pyrazol-3-yl)piperidin-1-yl]-2-(morpholin-4-yl)ethan-1-one]",> 100000 nM
9,"O=C(N1CCC(c2n[nH]c(NCc3ccc(Cl)s3)c2F)CC1)C1(O)CC1 [Entry 104, 1-[4-(5-[(5-chlorothiophen-2-yl)methyl]amino-4-fluoro-1H-pyrazol-3-yl)piperidine-1-carbonyl]cyclopropan-1-ol]",10000 to 100000 nM
10,"CC(C)(C)C(=O)n1nc(C2CCN(CC(=O)O)CC2)cc1NCc1ccc(Cl)s1 [Entry 109, 2-[4-(5-[(5-chlorothiophen-2-yl)methyl]amino-1-(2,2-dimethylpropanoyl)-1H-pyrazol-3-yl)piperidin-1-yl]acetic acid]",100 to 1000 nM
11,"CC(C)(CO)C(=O)n1nc(C2CCN(CC(=O)O)CC2)cc1NCc1ccc(Cl)s1 [Entry 110, 2-[4-(5-[(5-chlorothiophen-2-yl)methyl]amino-1-(3-hydroxy-2,2-dimethylpropanoyl)-1H-pyrazol-3-yl)piperidin-1-yl]acetic acid]",100 to 1000 nM
12,"O=C(CN1CCC(c2cc(NCc3ccc(Cl)s3)[nH]n2)CC1)N1CCOCC1 [Entry 111, 2-[4-(5-[(5-chlorothiophen-2-yl)methyl]amino-1H-pyrazol-3-yl)piperidin-1-yl]-1-(morpholin-4-yl)ethan-1-one]",> 100000 nM
13,"O=C(O)CN1CCC(c2cc(NCc3ccc(Cl)s3)[nH]n2)CC1 [Entry 112, 2-[4-(5-[(5-chlorothiophen-2-yl)methyl]amino-1H-pyrazol-3-yl)piperidin-1-yl]acetic acid]",> 100000 nM
14,"Clc1ccc(CNc2cc(C3CCN(Cc4ccccc4)CC3)n[nH]2)s1 [Entry 113, 3-(1-benzylpiperidin-4-yl)-N-[(5-chlorothiophen-2-yl)methyl]-1H-pyrazol-5-amine]",> 100000 nM
15,"Clc1ccc(CNc2cc(C3CCCNCC3)n[nH]2)s1 (stereo not shown) [Entry 125, 3-(azepan-4-yl)-N-[(5-chlorothiophen-2-yl)methyl]-1H-pyrazol-5-amine]",> 100000 nM
